For data set [1], the system named is Magnaporthe grisea (Pyricularia oryzae). It counts as in vivo. Particulars: 200 ppm; rice leaf segments cv. Ballila, inoculated 2 days after application, assessed 5-7 days after application.
Data set [2] relates to Puccinia recondita f. sp. tritici. Put plainly: Puccinia recondita f. sp. tritici / wheat / leaf disc preventative (brown rust). Format: in vivo. The conditions noted are these: foliar, wheat leaf segments cv Kanzler, inoculated 1 day after application, assessed 7-9 days after application, read-out: disease control. From the text:
3. Puccinia recondita f. sp. tritici/Wheat/Leaf Disc Preventative (Brown Rust): Wheat leaf segments cultivated variety (cv) Kanzler were placed on agar in 24-well plates and sprayed with formulated test compound diluted in water at an application rate of 200 ppm. The leaf disks were inoculated with a spore suspension of the fungus 1 day after application.

The subject of data set [3] is Pythium ultimum. Put plainly: Pythium ultimum / liquid culture (seedling damping off). Format: cell-based. Particulars: Globisporangium ultimum; 200 ppm; potato dextrose broth, 24° C., 2-3 days after application; read-out: disease control (inhibition of growth determined photometrically).
Data set [4] relates to Monographella nivalis (Microdochium nivale). Put plainly: Monographella nivalis (Microdochium nivale) / liquid culture (foot rot cereals). Format: cell-based. Particulars: PDB potato dextrose broth, 24° C., 4-5 days after application, read-out: disease control (inhibition of growth determined photometrically).
Data set [5] concerns Mycosphaerella graminicola (Septoria tritici). Put plainly: Mycosphaerella graminicola (Septoria tritici) / liquid culture (Septoria blotch). Particulars: Zymoseptoria tritici, PDB potato dextrose broth, 24° C., 4-5 days after application, read-out: disease control (inhibition of growth determined photometrically). It counts as cell-based. Put shortly: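 Growth inhibition was read photometrically 4-5 days after application, following incubation at 24° C of fungal conidia in potato dextrose broth over test compound (200 ppm, from DMSO solution) in microtiter plates.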

Data set [6] concerns Phaeosphaeria nodorum (Septoria nodorum). Put plainly: Phaeosphaeria nodorum (Septoria nodorum) / wheat / leaf disc preventative (glume blotch). It counts as in vivo. The conditions noted are these: Parastagonospora nodorum, foliar, wheat leaf segments cv Kanzler, inoculated 2 days after application, assessed 5-7 days after application, read-out: disease control. The protocol: 5. Phaeosphaeria nodorum (Septoria nodorum)/Wheat/Leaf Disc Preventative (Glume Blotch): Wheat leaf segments (cv) Kanzler were placed on agar in a 24-well plate and sprayed with formulated test compound diluted in water at an application rate of 200 ppm. The leaf disks were inoculated with a spore suspension of the fungus 2 days after application. The inoculated test leaf disks were incubated at 20° C. and 75% relative humidity under a light regime of 12/12 h (light/dark) in a climate cabinet and the activity of a compound was assessed as percent disease control compared to untreated when an appropriate level of disease damage appears in untreated check leaf disks (5-7 days after application).

Data set [7] deals with Plasmopara viticola. Put plainly: whole plant or invertebrate. It counts as in vivo. The conditions noted are these: foliar, read-out: disease control.
The subject of data set [8] is Glomerella lagenarium (Colletotrichum lagenarium). Put plainly: Glomerella lagenarium (Colletotrichum lagenarium) / liquid culture (anthracnose). The conditions noted are these: Colletotrichum orbiculare, PDB potato dextrose broth, 24° C., 3-4 days after application, read-out: disease control (inhibition of growth measured photometrically). Format: cell-based. Put shortly:
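Compound was applied at 200 ppm from DMSO solution, then potato dextrose broth carrying cryostored fungal spores was added. Growth inhibition was measured by photometry after 3-4 days of incubation at 24° C.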

Data set [9] relates to Fusarium culmorum. Put plainly: microbe, parasite or virus in culture. Format: cell-based. Particulars: read-out: disease control (inhibition of growth determined visually).
Data set [10] relates to Gaeumannomyces graminis. Put plainly: Gaeumannomyces graminis / liquid culture (take-all of cereals). It counts as cell-based. Particulars: PDB potato dextrose broth, 24° C., 4-5 days after application, read-out: disease control (inhibition of growth determined photometrically). Put shortly:
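Growth inhibition measured photometrically 4–5 days post-application, following incubation at 24 °C. Test compound, applied from DMSO at 200 ppm, mixed with fungal mycelial fragments in potato dextrose broth.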

Data set [11] has as its system Botryotinia fuckeliana (Botrytis cinerea). Put plainly: Botryotinia fuckeliana (Botrytis cinerea) / liquid culture (gray mould). It counts as cell-based. Particulars: Vogels broth, 24° C., 3-4 days after application, read-out: disease control (inhibition of growth determined photometrically). Put shortly:
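Conidia in Vogels broth added to 96-well plates containing test compound in DMSO at 200 ppm. Incubated at 24° C. Growth inhibition read photometrically 3-4 days after application.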

For data set [12], the system named is Mycosphaerella arachidis (Cercospora arachidicola). Put plainly: Mycosphaerella arachidis (Cercospora arachidicola) / liquid culture (early leaf spot). Format: cell-based. The conditions noted are these: PDB potato dextrose broth, 24° C., 4-5 days after application, read-out: disease control (inhibition of growth determined photometrically). Put shortly:
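Test compound, applied at 200 ppm from DMSO solution, was combined with spore-containing potato dextrose broth. Photometric growth inhibition was scored after 4-5 days at 24° C.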

Data set [13] has as its system Phytophthora infestans. Put plainly: whole plant or invertebrate. Particulars: in Solanum lycopersicum, foliar, read-out: disease control. It counts as in vivo.
Data set [14] relates to Sclerotinia sclerotiorum. Put plainly: Sclerotinia sclerotiorum / liquid culture (cottony rot). It counts as cell-based. The conditions noted are these: PDB potato dextrose broth, 24° C., 3-4 days after application, read-out: disease control (inhibition of growth determined visually). The protocol:
18. Sclerotinia sclerotiorum/Liquid Culture (Cottony Rot): Mycelia fragments of a newly grown liquid culture of the fungus were directly mixed into nutrient broth (PDB potato dextrose broth). After placing a (DMSO) solution of the test compounds into a microtiter plate (96-well format) the nutrient broth containing the fungal material was added. The test plates were incubated at 24° C. and the inhibition of growth was determined visually 3-4 days after application.

For data set [15], the system named is Thanatephorus cucumeris (Rhizoctonia solani). Put plainly: Thanatephorus cucumeris (Rhizoctonia solani) / liquid culture (foot rot, damping-off). Format: cell-based. The conditions noted are these: PDB potato dextrose broth, 24° C., 3-4 days after application, read-out: disease control (inhibition of growth determined photometrically). Put shortly:
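Photometric growth-inhibition readout taken 3-4 days after application, with cultures incubated at 24 °C. Test compound was applied at 200 ppm from DMSO solution to R. solani mycelial fragments in PDB.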

Data set [16] concerns Puccinia recondita f. sp. tritici. Put plainly: Puccinia recondita f. sp. tritici / wheat / leaf disc curative (brown rust). It counts as in vivo. Particulars: foliar, 192 h, wheat leaf segments, applied one day after inoculation, assessed 8 dpi, read-out: disease control. The protocol:
4. Puccinia recondita f. sp. tritici/Wheat/Leaf Disc Curative (Brown Rust) Wheat leaf segments are placed on agar in multiwell plates (24-well format). The leaf disks are then inoculated with a spore suspension of the fungus. One day after inoculation the test solution is applied. After appropriate incubation the activity of a compound is assessed 8 dpi (days after inoculation) as curative fungicidal activity. Dose range: 200-22 ppm.

Molecules are shown by their SMILES. Bounds are passed on as bounds.

For `COC(=O)c1cc2c(cc1Cl)COB2O` [Compound 21], the disease control entry in [1] is “at least 80%”.

In the case of `O=C(Nc1ccccc1C(=O)c1ccccc1)c1cc2c(cc1F)COB2O` [Compound 161], the pest or weed control at 200 ppm in data set [2], in [6] and in [7] was not below 80% in each case. Moreover, the inhibition at 200 ppm in data set [3], in data set [4] and in [5] was not below 80% each time.

Take `O=C(OCC1CC1)c1cc2c(cc1Cl)COB2O` [Compound 202]: the inhibition at 200 ppm in data set [3], in [4], in [8], in data set [9], in data set [10] and in [11] was not below 80% throughout. The inhibition at 200 ppm in [12], in data set [5], in [14] and in data set [15] was not below 80% each time. The pest or weed control at 200 ppm in data set [13] and in data set [6] was not below 80% each time.

For the compound `C#CCCCOC(=O)c1cc2c(cc1Cl)COB2O` [Compound 208], the inhibition at 200 ppm in data set [3], in data set [4], in data set [8], in data set [10] and in [5] was not below 80% each time. Further, the pest or weed control at 200 ppm in [13], in [6] and in [7] was not below 80% throughout.

On to `O=C(OCCF)c1cc2c(cc1Cl)COB2O` [Compound 233], for which the inhibition at 200 ppm in data set [3], in [4], in data set [8], in [9], in [10] and in [12] was not below 80% each time. Further, in data set [5], the inhibition (in general, the relative decrease from the control value, in per cent) at 200 ppm is not below 80%. The pest or weed control at 200 ppm in data set [6] and in [16] was not below 80% throughout.

With `CCC#CCOC(=O)c1ccc2c(c1)B(O)OC2` [Compound 318], the inhibition at 200 ppm in data set [3], in [4], in data set [9], in [10], in [11] and in data set [12] was not below 80% in each case. Also, the inhibition at 200 ppm in data set [5] and in data set [15] was not below 80% each time. The pest or weed control at 200 ppm in [6] and in data set [7] was not below 80% throughout.

Regarding `O=C(OCC1CCC1)c1ccc2c(c1)B(O)OC2` [Compound 351], the inhibition at 200 ppm in [3], in data set [4], in [8], in [9], in [10] and in [12] was not below 80% in each case. For the same compound, the inhibition at 200 ppm in [5] and in [15] was not below 80% throughout. Besides, the pest or weed control at 200 ppm in data set [6], in [7] and in data set [16] was not below 80% each time.

Take `COC(=O)c1cc2c(cc1C)COB2O` [Compound 446]: the melting point – broadly, the temperature, or range, at which the solid turns liquid – lay within 136 to 138 °C. The inhibition at 200 ppm in [3] was not below 80%. Further, the inhibition at 200 ppm in data set [4] is not below 80%. Besides, in [8], the inhibition at 200 ppm is not below 80%. Further, the inhibition at 200 ppm in data set [9] was not below 80%. In addition, in [10], the inhibition at 200 ppm is not below 80%. Also, the inhibition at 200 ppm in data set [12] is not below 80%. The inhibition at 200 ppm in data set [5] was not below 80%. Besides, in [6], the pest or weed control at 200 ppm was not below 80%. For the same compound, the inhibition at 200 ppm in data set [14] was not below 80%. The inhibition at 200 ppm in data set [15] was not below 80%.

The values above are taken from patent US20170000133A1, “BENZOXABOROLE FUNGICIDES” (SYNGENTA PARTICIPATIONS AG, priority 2013, published 2017).
